Where a name gives a salt, the structure may show the parent alone. Read-outs that look alike come from different tables or passages of the source.
Key:
[1] = tested on: MM.1S multiple myeloma cell line; experiment: CellTiter 96 AQueous One Solution cell proliferation assay, MM.1S; assay type: cell-based; conditions: Homo sapiens, MM1.S, 72 h of treatment, read-out: Cytotoxicity Assay
Text: The CellTiter 96® AQueous One Solution cell proliferation assay (Promega) was used on MM.1S multiple myeloma cell line to study the cytotoxic and cytostatic properties of the compounds. The assay is based on the cleavage of the tetrazolium salt, MTS, in the presence of an electron-coupling reagent PES (phenazine ethosulfate). The MTS tetrazolium compound is bioreduced by cells into a colored formazan product that is soluble in tissue culture medium. This conversion is presumably accomplished by NADPH or NADH produced by dehydrogenase enzymes in metabolically active cells. Assays are performed by adding a small amount of the CellTiter 96® AQueous One solution reagent directly to culture wells, incubating for 1-4 hours and then recording the absorbance at 490 nm with a 96-well plate reader.
(§1) The cells were seeded at 5×10^3 to 1.5×10^4 cells in each well of a 96-well plate in 100 μL of fresh culture medium and adherent cells were allowed to attach overnight. The stock solutions of the compounds were diluted in cell culture medium to obtain eight concentrations of each drug, ranging from 1 nM to 30 μM and DMSO at less than 1% v/v was used as a negative control. The resulting drug solutions were transferred onto the cells. After 72 h of treatment, 20 μl of CellTiter 96® AQueous reagent was added into each well of the 96-well assay plates and the plate was incubated at 37° C. for 1-4 hours in a humidified, 5% CO2 atmosphere. Then the absorbance of each well was recorded at 490 nm using a 96-well plate reader. In most cases, the assay was performed in triplicate and the results were presented as half maximal inhibitory concentration (IC50). Optical density versus compound concentration was plotted and analyzed using non-linear regression equations (IDBS XLfit) and the IC50 for each compound was calculated.

[2] = tested on: PMA-induced male BALB/c psoriatic mice; assay type: in vivo; conditions: 10 mg/kg oral, M-W-F
Method: BALB/c mice were housed in individually ventilated cages in a controlled environment (temperature 22±1° C., humidity 70±5%, and 12 h light/12 h dark cycle) in the animal facility. The mice had access to commercially available feed pellets and UV-treated potable water ad libitum. 4 mice were housed per individually ventilated cage. Each animal in the cage was identified by a tail. 8 mice per group mice were randomized into different treatment groups according to body weight. Following randomization the mean body weight for all groups was equivalent. Study design was Group 1: Naïve, 1% DMSO vehicle (10-30 ul, topical once daily), Group 2: PMA, 1% DMSO vehicle (10-30 ul, topical once daily), Group 3: PMA, 1-4 10 mg/kg in PVP/Pluronics (oral, M-W-F; Day 1-Day 3-Day 5-Day 7), Group 4: PMA, 0.1% betamethasone—25 mg (reference standard) (topical once daily)
4 ug Phorbol 12-myristate 13-acetate (PMA) in 20 uL of acetone was applied every day to mouse ears. Starting from Day 2, PMA-induction of dermal inflammation/psoriasis manifested with increases in clinical disease activity index associated with increased thickness of ear, scaling of ear-skin, and folding of ear-skin. The following parameters were evaluated: (i) the thickness of the ear, (ii) scaling on the skin of ear. This will be based on a scoring index—0, no scaling; 1, mild scaling; 2, moderate scaling; 3, severe scaling. […]

HCC-1428 = experiment: Cell proliferation assay, HCC-1428; assay type: cell-based; conditions: Homo sapiens, HCC1428; HCC-1428, type Lu, 72 h
Method: as §1, with “1.5×10^4 cells (depending on cell type) in each” for “1.5×10^4 cells in each”, “concentration (IC50).” for “concentration (IC50). Optical density versus compound concentration was plotted and analyzed using non-linear regression equations (IDBS XLfit) and the IC50 for each compound was calculated.”

BT-549 = experiment: Cell proliferation assay, BT-549; assay type: cell-based; conditions: Homo sapiens; BT-549, type BaB, 72 h
Method: as §1, with “1.5×10^4 cells (depending on cell type) in each” for “1.5×10^4 cells in each”, “concentration (IC50).” for “concentration (IC50). Optical density versus compound concentration was plotted and analyzed using non-linear regression equations (IDBS XLfit) and the IC50 for each compound was calculated.”

HCC-202 = experiment: Cell proliferation assay, HCC-202; assay type: cell-based; conditions: HCC202; HCC-202, type Lu/HER+, 72 h
Method: as §1, with “1.5×10^4 cells (depending on cell type) in each” for “1.5×10^4 cells in each”, “concentration (IC50).” for “concentration (IC50). Optical density versus compound concentration was plotted and analyzed using non-linear regression equations (IDBS XLfit) and the IC50 for each compound was calculated.”

[3] = tested on: MDA-MB-468 triple negative breast cancer cells; conditions: oral, day 33 post inoculation
Method: MDA-MB-468 (ATCC #HTB-132)triple negative breast cancer cells were obtained from ATCC. These cells were grown in Leibovitz's L-15 medium supplemented with 10% fetal calf serum (FCS), 1% penicillin and streptomycin, and 2 mM L-glutamine. Cells were sub-cultured by dilution at a ratio of 1:3. Fifty (50) female SCID mice (Charles River Labs), aged 5 to 6 weeks, with a mean pre-treatment body weight of 19.2 grams were used. SCID mice were inoculated s.c. in the left flank with 5×10^6 MDA-MB-468 cells. When the tumors reached a mean size of between 100 and 200 mm^3, mice were randomly and prospectively divided into a vehicle control group of ten (10) mice and five treatment groups of eight (8) mice per group.
All administrations were via the oral route. Animals were fed with sterile Labdiet® 5053 (pre-sterilized) rodent chow and sterile water was provided ad libitum. Tumors were measured once every two days with micro-calipers, and tumor volume was calculated as (length×width×width)/2. All animals were weighed every day in order to assess differences in weight among treatment groups and monitor wellness of animals. […] Any animals with a tumor over 1500 mm^3 in volume were also euthanized. Survival was recorded daily. […] Statistical differences between treatment groups were determined using Mann-Whitney Rank Sum or ANOVA tests with a critical value of 0.05.

MCF12A = experiment: Cell proliferation assay, MCF12A; assay type: cell-based; conditions: Homo sapiens, MCF-12A, type BaB, 72 h
Method: as §1, with “1.5×10^4 cells (depending on cell type) in each” for “1.5×10^4 cells in each”, “concentration (IC50).” for “concentration (IC50). Optical density versus compound concentration was plotted and analyzed using non-linear regression equations (IDBS XLfit) and the IC50 for each compound was calculated.”

BT-20 = experiment: Cell proliferation assay, BT-20; assay type: cell-based; conditions: Homo sapiens; BT-20, type BaA, 72 h
Method: as §1, with “1.5×10^4 cells (depending on cell type) in each” for “1.5×10^4 cells in each”, “concentration (IC50).” for “concentration (IC50). Optical density versus compound concentration was plotted and analyzed using non-linear regression equations (IDBS XLfit) and the IC50 for each compound was calculated.”

SMILES	IC50 [1] [nM]	efficacy relative to positive control betamethasone [2]	mean ear thickness ([2]; compared to vehicle)	IC50 (HCC-1428) [nM]	IC50 (BT-549) [nM]	IC50 (HCC-202) [nM]	inhibition of tumor growth compared with vehicle-treated animals ([3]; 5 mg/kg Monday, Wednesday, Friday)	inhibition of tumor growth compared with vehicle-treated animals ([3]; 25 mg/kg Monday, Thursday regimen) [%]	IC50 (MCF12A) [nM]	IC50 (BT-20) [nM]
O=C(/C=C\n1cnc(-c2cc(C(F)(F)F)cc(C(F)(F)F)c2)n1)NNc1ccccn1 [Compound I-4, (Z)-3-(3-(3,5-bis(trifluoromethyl)phenyl)-1H-1,2,4-triazol-1-yl)-N′-(pyridin-2-yl)acrylohydrazide hydrochloride]	≤ 1000	comparable to positive control betamethasone	reduced mean ear thickness in a statistically significant manner							
O=C(/C=C\n1cnc(-c2cc(C(F)(F)F)cc(C(F)(F)F)c2)n1)NNc1cnccn1 [Compound I-3, (Z)-3-(3-(3,5-bis(trifluoromethyl)phenyl)-1H-1,2,4-triazol-1-yl)-N′-(pyrazin-2-yl)acrylohydrazide]	≤ 1000			10400	20	5200	approximately 60%	~100	150	1500

Reference: patent US12291508B2, “Hydrazide containing nuclear transport modulators and uses thereof” (Karyopharm Therapeutics Inc., priority 2011, dated 2025)
